Measured values: PMC10828660 (Heliyon, 2024)

Columns and labels:
[1] = tested on: MCF-7; assay: MTT anti-proliferative assay against MCF-7; type: cell-based; conditions: Homo sapiens, MCF7, read-out: MCF-7 IC50
[2] = tested on: MCF-7 cells; assay: Cell cycle analysis by flow cytometry; type: cell-based, Human
[3] = tested on: HepG2; assay: MTT anti-proliferative assay against HepG2; type: cell-based; conditions: Homo sapiens, HepG2, read-out: HepG2 IC50
[4] = target: VEGFR-2 (Homo sapiens, UniProt P35968); assay: biochemical
[5] = tested on: MCF-7 cells; assay: Annexin-V/propidium iodide apoptosis analysis; type: cell-based, Human
[6] = tested on: MCF-7 cells; assay: Wound healing; type: cell-based, Human
[7] = tested on: Vero cells; assay: In vitro safety assay on normal Vero cells; type: cell-based

Sequence of VEGFR-2 (P35968 20-1356): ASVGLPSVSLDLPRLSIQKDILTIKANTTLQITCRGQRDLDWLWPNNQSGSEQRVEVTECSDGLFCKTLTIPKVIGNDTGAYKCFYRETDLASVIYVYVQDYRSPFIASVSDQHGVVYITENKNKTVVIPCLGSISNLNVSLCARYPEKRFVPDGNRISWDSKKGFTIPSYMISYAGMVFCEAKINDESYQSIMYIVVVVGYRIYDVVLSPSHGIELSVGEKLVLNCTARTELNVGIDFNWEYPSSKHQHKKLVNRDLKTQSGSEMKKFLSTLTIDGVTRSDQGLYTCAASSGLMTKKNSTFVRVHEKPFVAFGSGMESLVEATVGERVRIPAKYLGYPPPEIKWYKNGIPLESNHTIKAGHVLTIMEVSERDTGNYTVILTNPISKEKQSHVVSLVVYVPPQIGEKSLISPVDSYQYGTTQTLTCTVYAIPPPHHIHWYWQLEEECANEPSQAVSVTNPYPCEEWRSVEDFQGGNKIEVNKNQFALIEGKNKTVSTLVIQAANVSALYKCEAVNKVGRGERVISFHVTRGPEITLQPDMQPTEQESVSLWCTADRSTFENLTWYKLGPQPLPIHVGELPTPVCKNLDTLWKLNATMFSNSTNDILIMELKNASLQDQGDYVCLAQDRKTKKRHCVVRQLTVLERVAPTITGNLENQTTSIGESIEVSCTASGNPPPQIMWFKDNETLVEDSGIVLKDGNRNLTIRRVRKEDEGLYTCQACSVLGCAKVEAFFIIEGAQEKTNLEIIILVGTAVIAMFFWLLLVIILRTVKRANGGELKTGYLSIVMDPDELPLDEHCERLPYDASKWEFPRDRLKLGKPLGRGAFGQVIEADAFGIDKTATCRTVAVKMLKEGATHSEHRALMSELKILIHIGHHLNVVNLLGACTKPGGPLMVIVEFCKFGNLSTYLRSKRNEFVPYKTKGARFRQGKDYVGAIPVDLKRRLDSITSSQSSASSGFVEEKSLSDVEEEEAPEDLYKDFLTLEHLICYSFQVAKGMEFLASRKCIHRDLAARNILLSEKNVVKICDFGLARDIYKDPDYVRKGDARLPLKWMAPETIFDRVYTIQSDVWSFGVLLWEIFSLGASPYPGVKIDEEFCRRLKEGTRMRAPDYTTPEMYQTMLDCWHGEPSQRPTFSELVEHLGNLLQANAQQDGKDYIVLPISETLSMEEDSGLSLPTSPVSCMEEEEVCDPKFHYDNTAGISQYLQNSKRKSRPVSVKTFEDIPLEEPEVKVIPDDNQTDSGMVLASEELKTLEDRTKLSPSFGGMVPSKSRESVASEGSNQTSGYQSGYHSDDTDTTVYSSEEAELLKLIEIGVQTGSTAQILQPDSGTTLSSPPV

For `O=C(CN1C(=O)SC(=Cc2ccc(Cl)cc2Cl)C1=O)Nc1ccc(C(=O)NNC(=O)c2ccccc2)cc1` [Compound 22, N-(4-(2-benzoylhydrazine-1-carbonyl)phenyl)-2-(5-(2,4-dichlorobenzylidene)-2,4-dioxothiazolidin-3-yl)acetamide], the IC50 [1] was 1210 ± 40 nM, the “Cell cycle arrest phase” value ([2]; MCF-7, 1.21 μM) was “S phase” and the “Cell cycle distribution G2/M” value ([2]; MCF-7, 1.21 μM for 72 h, control 16.35) was 13.77%. The “Cell cycle distribution S” value ([2]; MCF-7, 1.21 μM for 72 h, control 24.61) was 33.84%, the “Cell cycle distribution G0-G1” value ([2]; MCF-7, 1.21 μM for 72 h, control 59.04) was 52.39% and the IC50 [3] was 2040 ± 60 nM. The IC50 [4] was 79 ± 3 nM, the “Increase of early apoptosis compared to untreated cells” value ([5]; MCF-7, 1.21 μM) was “about 76 times” and the “Increase of late apoptosis compared to untreated cells” value ([5]; MCF-7, 1.21 μM) was “about 90 fold”. The “Apoptosis Late (Right Top)” value ([5]; MCF-7, 1.21 μM, 72 h, control 0.15) was 13.53%, the “Apoptosis Early (Right Bottom)” value ([5]; MCF-7, 1.21 μM, 72 h, control 0.29) was 22.15% and the “Necrosis (Left Top)” value ([5]; MCF-7, 72 h treatment, control 2.22) was 5.34. It also gave an RM ([6]; MCF-7, 48 h, untreated 16.58) of 6.16 um, a Wound closure ([6]; MCF-7, 48 h, untreated 81.62) of 30.20 % um^2 and an Area difference ([6]; MCF-7, 48 h, untreated 795.83) of 295.83%. The “Reduction in scratch width” value ([6]; MCF-7, after 48 h, untreated 81.62 %) was 30.20%, the “Scratch width at 48 h” value ([6]; MCF-7, untreated 178.24) was 682.93 and the “Scratch area at 48 h” value ([6]; MCF-7, untreated 179.17) was 683.83. The “Scratch width at 24 h” value ([6]; MCF-7, untreated 644.43) was 904.16, the “Scratch area at 24 h” value ([6]; MCF-7, untreated 645.50) was 905.17 and the “Scratch width at 0 h” value ([6]; MCF-7, untreated 974.11) was 978.78. For the same molecule, the “Scratch area at 0 h” value ([6]; MCF-7, untreated 975.00) was 979.67, the “Selectivity index HepG2” value ([7]; IC50 Vero divided by IC50 HepG2) was 1.95 and the “Selectivity index MCF-7” value ([7]; IC50 Vero divided by IC50 MCF-7) was 3.28.

With `O=C(CN1C(=O)SC(=Cc2ccccc2Cl)C1=O)Nc1ccc(C(=O)NNC(=O)c2cccc(Cl)c2)cc1` [Compound 19, N-(4-(2-(3-chlorobenzoyl)hydrazine-1-carbonyl)phenyl)-2-(5-(2-chlorobenzylidene)-2,4dioxothiazolidin-3-yl)acetamide] the IC50 [1] was 2290 ± 190 nM, the IC50 [3] was 3060 ± 20 nM and the IC50 [4] was 323 ± 14 nM.

With `O=C(CN1C(=O)SC(=Cc2ccc(Cl)cc2Cl)C1=O)Nc1ccc(C(=O)Nc2cccc(Cl)c2)cc1` [Compound 21, N-(3-chlorophenyl)-4-(2-(5-(2,4-dichlorobenzylidene)-2,4-dioxothiazolidin-3-yl)acetamido)benzamide] the IC50 [1] was 680 ± 10 nM, the IC50 [3] was 840 ± 10 nM and the IC50 [4] was 1660 ± 70 nM.

`O=C(CN1C(=O)SC(=Cc2ccc(Cl)cc2Cl)C1=O)Nc1ccc(C(=O)NNC(=O)c2ccccc2O)cc1` [Compound 24, 2-(5-(2,4-Dichlorobenzylidene)-2,4-dioxothiazolidin-3-yl)-N-(4-(2-(2-hydroxybenzoyl) hydrazine-1-carbonyl)phenyl)acetamide] was tested, and the IC50 [1] was 650 ± 10 nM, the IC50 [3] was 600 ± 20 nM and the IC50 [4] was 203 ± 9 nM.

In the case of `O=C(CN1C(=O)SC(=Cc2ccc(Cl)cc2Cl)C1=O)Nc1ccc(C(=O)NNC(=O)c2cccc(Cl)c2)cc1` [Compound 23, N-(4-(2-(3-chlorobenzoyl)hydrazine-1-carbonyl)phenyl)-2-(5-(2,4-dichlorobenzylidene)-2,4-dioxothiazolidin-3-yl)acetamide], the IC50 [1] is reported as 950 ± 10 nM, the IC50 [3] is reported as 1180 ± 10 nM and the IC50 [4] is reported as 328 ± 14 nM.

For `O=C(CN1C(=O)SC(=Cc2ccccc2Cl)C1=O)Nc1ccc(C(=O)NNc2ccccc2)cc1` [Compound 18, 2-(5-(2-Chlorobenzylidene)-2,4-dioxothiazolidin-3-yl)-N-(4-(2-phenylhydrazine-1-carbonyl)phenyl)acetamide], the IC50 [1] was 1760 ± 20 nM, the IC50 [3] was 4700 ± 100 nM and the IC50 [4] was 2660 ± 112 nM.

In the case of `O=C(CN1C(=O)SC(=Cc2ccccc2Cl)C1=O)Nc1ccc(C(=O)NNC(=O)c2ccccc2O)cc1` [Compound 20, 2-(5-(2-Chlorobenzylidene)-2,4-dioxothiazolidin-3-yl)-N-(4-(2-(2-hydroxybenzoyl) hydrazine-1-carbonyl)phenyl)acetamide], the IC50 [1] is reported as 660 ± 30 nM, the IC50 [3] is reported as 1140 ± 30 nM and the IC50 [4] is reported as 210 ± 9 nM.
